Data as given in BigSolDB 2.1.

SMILES: Nc1cncc(Cl)n1
- solubility (mole fraction) (in DMF, 278.15 K): 0.00915
- solubility (mole fraction) (in DMF, 283.15 K): 0.0111
- solubility (mole fraction) (in DMF, 288.15 K): 0.0135
- solubility (mole fraction) (in DMF, 293.15 K): 0.0162
- solubility (mole fraction) (in DMF, 298.15 K): 0.0194
- solubility (mole fraction) (in DMF, 303.15 K): 0.023
- solubility (mole fraction) (in DMF, 308.15 K): 0.0271
- solubility (mole fraction) (in DMF, 313.15 K): 0.0322
- solubility (mole fraction) (in DMF, 318.15 K): 0.0378
- solubility (mole fraction) (in DMF, 323.15 K): 0.0442
- solubility (mole fraction) (in acetone, 278.15 K): 0.0117
- solubility (mole fraction) (in acetone, 283.15 K): 0.0141
- solubility (mole fraction) (in acetone, 288.15 K): 0.0167
- solubility (mole fraction) (in acetone, 293.15 K): 0.0198
- solubility (mole fraction) (in acetone, 298.15 K): 0.0231
- solubility (mole fraction) (in acetone, 303.15 K): 0.0269
- solubility (mole fraction) (in acetone, 308.15 K): 0.0314
- solubility (mole fraction) (in acetone, 313.15 K): 0.0371
- solubility (mole fraction) (in acetone, 318.15 K): 0.0431
- solubility (mole fraction) (in acetone, 323.15 K): 0.0505
- solubility (mole fraction) (in acetonitrile, 278.15 K): 0.00984
- solubility (mole fraction) (in acetonitrile, 283.15 K): 0.0119
- solubility (mole fraction) (in acetonitrile, 288.15 K): 0.0143
- solubility (mole fraction) (in acetonitrile, 293.15 K): 0.0172
- solubility (mole fraction) (in acetonitrile, 298.15 K): 0.0209
- solubility (mole fraction) (in acetonitrile, 303.15 K): 0.0248
- solubility (mole fraction) (in acetonitrile, 308.15 K): 0.0295
- solubility (mole fraction) (in acetonitrile, 313.15 K): 0.0352
- solubility (mole fraction) (in acetonitrile, 318.15 K): 0.041
- solubility (mole fraction) (in acetonitrile, 323.15 K): 0.0488
- solubility (mole fraction) (in ethanol, 278.15 K): 0.00159
- solubility (mole fraction) (in ethanol, 283.15 K): 0.0019
- solubility (mole fraction) (in ethanol, 288.15 K): 0.00226
- solubility (mole fraction) (in ethanol, 293.15 K): 0.00272
- solubility (mole fraction) (in ethanol, 298.15 K): 0.00323
- solubility (mole fraction) (in ethanol, 303.15 K): 0.00384
- solubility (mole fraction) (in ethanol, 308.15 K): 0.00453
- solubility (mole fraction) (in ethanol, 313.15 K): 0.0053
- solubility (mole fraction) (in ethanol, 318.15 K): 0.00624
- solubility (mole fraction) (in ethanol, 323.15 K): 0.00756
- solubility (mole fraction) (in ethylene glycol, 278.15 K): 0.000717
- solubility (mole fraction) (in ethylene glycol, 283.15 K): 0.000905
- solubility (mole fraction) (in ethylene glycol, 288.15 K): 0.00113
- solubility (mole fraction) (in ethylene glycol, 293.15 K): 0.00141
- solubility (mole fraction) (in ethylene glycol, 298.15 K): 0.00172
- solubility (mole fraction) (in ethylene glycol, 303.15 K): 0.00204
- solubility (mole fraction) (in ethylene glycol, 308.15 K): 0.00239
- solubility (mole fraction) (in ethylene glycol, 313.15 K): 0.00281
- solubility (mole fraction) (in ethylene glycol, 318.15 K): 0.00325
- solubility (mole fraction) (in ethylene glycol, 323.15 K): 0.00377
- solubility (mole fraction) (in isopropanol, 278.15 K): 0.00421
- solubility (mole fraction) (in isopropanol, 283.15 K): 0.00503
- solubility (mole fraction) (in isopropanol, 288.15 K): 0.00608
- solubility (mole fraction) (in isopropanol, 293.15 K): 0.00737
- solubility (mole fraction) (in isopropanol, 298.15 K): 0.00874
- solubility (mole fraction) (in isopropanol, 303.15 K): 0.0104
- solubility (mole fraction) (in isopropanol, 308.15 K): 0.0122
- solubility (mole fraction) (in isopropanol, 313.15 K): 0.0146
- solubility (mole fraction) (in isopropanol, 318.15 K): 0.017
- solubility (mole fraction) (in isopropanol, 323.15 K): 0.0198
- solubility (mole fraction) (in methanol, 278.15 K): 0.00114
- solubility (mole fraction) (in methanol, 283.15 K): 0.00135
- solubility (mole fraction) (in methanol, 288.15 K): 0.00164
- solubility (mole fraction) (in methanol, 293.15 K): 0.00196
- solubility (mole fraction) (in methanol, 298.15 K): 0.00244
- solubility (mole fraction) (in methanol, 303.15 K): 0.00293
- solubility (mole fraction) (in methanol, 308.15 K): 0.00347
- solubility (mole fraction) (in methanol, 313.15 K): 0.00415
- solubility (mole fraction) (in methanol, 318.15 K): 0.00489
- solubility (mole fraction) (in methanol, 323.15 K): 0.00575
- solubility (mole fraction) (in n-propanol, 278.15 K): 0.00494
- solubility (mole fraction) (in n-propanol, 283.15 K): 0.00588
- solubility (mole fraction) (in n-propanol, 288.15 K): 0.00709
- solubility (mole fraction) (in n-propanol, 293.15 K): 0.00858
- solubility (mole fraction) (in n-propanol, 298.15 K): 0.0105
- solubility (mole fraction) (in n-propanol, 303.15 K): 0.0127
- solubility (mole fraction) (in n-propanol, 308.15 K): 0.0152
- solubility (mole fraction) (in n-propanol, 313.15 K): 0.0181
- solubility (mole fraction) (in n-propanol, 318.15 K): 0.0211
- solubility (mole fraction) (in n-propanol, 323.15 K): 0.0246
- solubility (mole fraction) (in propylene glycol, 278.15 K): 0.000917
- solubility (mole fraction) (in propylene glycol, 283.15 K): 0.00115
- solubility (mole fraction) (in propylene glycol, 288.15 K): 0.00139
- solubility (mole fraction) (in propylene glycol, 293.15 K): 0.00171
- solubility (mole fraction) (in propylene glycol, 298.15 K): 0.00204
- solubility (mole fraction) (in propylene glycol, 303.15 K): 0.00237
- solubility (mole fraction) (in propylene glycol, 308.15 K): 0.00281
- solubility (mole fraction) (in propylene glycol, 313.15 K): 0.00327
- solubility (mole fraction) (in propylene glycol, 318.15 K): 0.00379
- solubility (mole fraction) (in propylene glycol, 323.15 K): 0.00448
- solubility (mole fraction) (in water, 278.15 K): 3.62e-05
- solubility (mole fraction) (in water, 283.15 K): 4.42e-05
- solubility (mole fraction) (in water, 288.15 K): 5.21e-05
- solubility (mole fraction) (in water, 293.15 K): 6.29e-05
- solubility (mole fraction) (in water, 298.15 K): 7.43e-05
- solubility (mole fraction) (in water, 303.15 K): 8.97e-05
- solubility (mole fraction) (in water, 308.15 K): 0.000105
- solubility (mole fraction) (in water, 313.15 K): 0.000123
- solubility (mole fraction) (in water, 318.15 K): 0.000143
- solubility (mole fraction) (in water, 323.15 K): 0.000168
